How the values were obtained:
CD8 positive cells = experiment: intracellular interferon γ staining (flow cytometry); assay type: cell-based, human; parameters: key: ++ refers to a sample found to produce interferon γ in 3/3; + refers to a sample found to produce interferon γ in ⅓ to ⅔; details: 5×10^5 lymphocytes, peptide 1 μg/ml, 4 hours
Experimental: (§1) Peripheral blood of healthy individuals with the same HLA-A*02:01 as the subject sample (tumor patient) was used. An experiment of reactivity was conducted using peptides that were manufactured therefor.
The obtained samples were subjected to intracellular interferon γ staining. 5×10^5 lymphocytes were stimulated and cultured for 4 hours in a 200 μl medium. Neoantigen peptides and control peptides were added so that the final concentration was 1 μg/ml for stimulation. An unstimulated control was also prepared. BioLegend Brefeldin A Solution (1,000×) was added so that the final concentration would be 5.0 μg/ml during stimulation. After the completion of culturing, the cells were collected and stained for 30 minutes at 4° C. with Fixable Viability Dye eFluor780 (eBioscience 65-0865-18), FITC labeled anti-CD4 antibody (BD Pharmingen™557307), ECD labeled anti-CD8 antibody (BECKMAN COULTER 41116015) and PerCP-CY5.5 labeled anti-CD3 antibody (Biolegend 300430).
The cells were treated for 15 minutes with Intraprep permeabilization reagent (Immunotech, Marseille, France). The cells were stained for 15 minutes with PE labeled anti-IL-2 antibody (BD Pharmingen™559334), Alexa700 labeled anti-TNFα antibody (BD Pharmingen™557996), and Pacific Blue labeled anti-IFN-γ antibody (Biolegend 502522)
After suspension into PBS containing 0.5% PFA, measurement was taken with Gallios flow cytometer (BECKMAN COULTER). For intracellular flow cytometry sorting, CD8 positive cells were used to analyze the production of interferon γ.

[1] = system: peripheral blood of healthy individuals with HLA-A*02:01; experiment: interferon γ ELISPOT assay; assay type: cell-based, human; parameters: key: ++ refers to a sample found to produce interferon γ in 3/3; + refers to a sample found to produce interferon γ in ⅓ to ⅔; details: 1×10^5 cells stimulated 16 hours; HLA-A*02:01 healthy donor peripheral blood
Experimental: as §1
The conducted assay performed interferon γ ELISPOT and intracellular interferon γ staining. For the interferon γ ELISPOT, MABTECH anti-human IFN-γ mAb 1-D1K, purified (3420-3-250) was used as a capture antibody. In addition, MILLIPORE MultiScreen HTS 96-well Filtration Plate was used.
Briefly stated, the following was performed. • (1) Cytokine (interferon-γ in this example) specific monoclonal antibodies (MABTECH anti-human IFN-γ mAb 1-D1K, purified (3420-3-250)) were immobilized on the solid layer surface. MILLIPORE MultiScreen HTS 96-well Filtration Plate was used in this example. • (2) 1×10^5 cells were stimulated and cultured for 16 hours after washing. The secreted cytokines, i.e., interferon-γ, were bound to capture antibodies (Detection antibody; MABTECH anti-human IFN-γ mAb 7-B6-1, biotinylated (3420-6-250)) that were around the producing cells. After removing the cells by washing, anti-interferon γ antibodies for detection were added.
For biotin labeled detection antibodies, enzyme labeled streptavidin (MABTECH Streptavidin-HRP (3310-9)) was added. • (3) Next, BD ELISPOT AEC Substrate Set (551951) was used for coloration. This method allows the spot corresponding to the position where interferon γ (cytokine) producing cell was located to be seen. The obtained spots were counted with a Carl Zeiss KS ELISPOT (Minerva Tech). The frequency of positive cells was recorded. (Intracellular Interferon γ Staining)

Substance	IFNγ secretion Intra (CD8 positive cells)	IFNγ secretion ELISPOT [1]
7 (VLNINDNEPV) [compound 7]	++	–
12 (NLKKLLVF) [compound 12]	–	++
18 (ICFLALECLAH) [compound 18]	–	++
21 (QLLEPEISFL) [compound 21]	++	–
27 (KVLQLLEPEI) [compound 27]	+	–
30 (ALYPFEFRS) [compound 30]	+	–
36 (ILQEYREDFV) [compound 36]	+	–
42 (KTFTYSSAL) [compound 42]	–	++
43 (FQYSSPALPT) [compound 43]	–	++
FLALECLAHL [pepID 14]	++	++
FTYSSALKV [pepID 41]	++	++
NISSRIHTV [pepID 33]	++	+
